Data set [1] concerns lipoprotein lipase (LPL) gene. The experiment in a line: LPL mRNA elevating action (RT-PCR quantification of LPL mRNA in C2Cl2 cells). The note with it: compound 10 μM, ratio relative to the amount of LPL mRNA in cells with DMSO only; for fold induction at 10 µM: Mus musculus, 24 h, read-out: Rate of increase in LPL mRNA. It is filed as cell-based, mouse. As to the method:
LPL mRNA Elevating Action
C2Cl2 cells (cell strain derived from striated muscle of mouse) were seeded in 96-well plates using a DMEM medium (Gibco) (containing 2 mM L-glutamine and 10% fetal bovine serum). After the cells were grown, the medium was removed. Subsequently, media obtained by adding dimethyl sulfoxide (DMSO) solutions of the compounds to the same medium as described above to a concentration of 10 μM were individually added to the cells and allowed to stand for 24 hours. The compound-containing media were removed, and the plates were washed with phosphate buffered saline. Thereafter, the remaining cells were lysed and subjected to a reverse transcription polymerase chain reaction (RT-PCR reaction) to obtain cDNA. Primers specific to lipoprotein lipase (LPL) gene, a necessary enzyme, etc., were added to the obtained cDNA. The mixture was set in 7500 Fast Real Time PCR System produced by Applied Biosystem to perform a PCR reaction (20 cycles) and the amount of LPL mRNA amplified was quantified. The LPL mRNA elevating action of each compound in the test cells was indicated as the ratio relative to the amount of LPL mRNA in cells allowed to stand in a medium to which only DMSO was added, with the amount being defined as 1.
As Comparative Example 1, a test was performed in the same manner as above, using a compound disclosed as the compound of Example 57 in WO2010/090200.

A short description of data set [2]: Solubility in gastric juice or intestinal juice model fluid (precipitation method using DMSO). The data set is classed as physicochemical. The note with it: room temperature. The method in brief:
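Dissolved amount (μg/mL) quantified by UV of filtrate versus pre-made calibration curves. Precipitation approach: DMSO solutions spiked into pH 1.2 (JP 1st fluid) or pH 6.8 (JP 2nd fluid) medium, shaken at room temperature for 24 h before insolubles were filtered off.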

Where [3] appears, read: pH 1.2, simulated gastric fluid, kinetic from dmso stock, 1st fluid for Disintegration Test of Japanese Pharmacopoeia (pH: 1.2), read-out: Solubility (μg/mL) 1st fluid.
[4] abbreviates: pH 6.8, kinetic from dmso stock, 2nd fluid for Disintegration Test of Japanese Pharmacopoeia (pH: 6.8), read-out: Solubility (μg/mL) 2nd fluid.

Converted amounts (≈) assume the structure as drawn. Read-outs that look alike come from different tables or passages of the source. Where only a bound is given, the exact number is not on record here.

`COc1cc(OCc2ccc(C(F)(F)F)nc2)ccc1-c1cnc(C2CCC(F)(F)C2)[nH]1` (stereo not drawn) [Example 3]: the fold induction at 10 µM in data set [1] turned out to be 2.48. Further, the solubility at 24 h was 87.5 µg/mL (≈ 193 µM) in data set [2] (setting [3]) and 1 µg/mL (≈ 2.21 µM) in data set [2] (setting [4]).
On to `COc1cc(OCc2ccc(C(F)(F)F)nc2)c(C)cc1-c1cnc(C2CCC(F)(F)CC2)[nH]1` [Example 12], for which the fold induction at 10 µM in data set [1] was 2.23. Besides, the solubility at 24 h in data set [2] (setting [3]) was 15.6 µg/mL (≈ 32.4 µM); in data set [2] (setting [4]) it was below 1.7 µg/mL.
Turning to `COc1c(OCc2ccc(C(F)(F)F)nc2)ccc(-c2cnc(C3CCC(F)(F)CC3)[nH]2)c1OC` [Example 14], the fold induction at 10 µM in data set [1] came out at 5.42. Also, the solubility at 24 h in data set [2] (setting [3]) was above 99 µg/mL; in data set [2] (setting [4]) it was below 0.4 µg/mL.
Take `COc1cc(OCc2ccc(C(F)(F)F)nc2)ccc1-c1nc(C2CCCCC2)[nH]c1C` [Example 48]: the fold induction at 10 µM in data set [1] came out at 3.02. The solubility at 24 h in data set [2] (setting [3]) is above 89 µg/mL; in data set [2] (setting [4]), 80.8 µg/mL (≈ 181 µM).
For `COc1cc(-c2c[nH]c(C3CCCCCC3)n2)ccc1OCc1ccc(C(F)(F)F)cn1` [Example 72], in data set [1], the fold induction at 10 µM was 2.75. In addition, the solubility at 24 h in data set [2] (setting [3]) is above 116 µg/mL; in data set [2] (setting [4]), 1.8 µg/mL (≈ 4.04 µM).
Regarding `COc1cc(OCc2ncc(Br)cc2F)ccc1-c1cnc(-c2ccc(F)nc2)[nH]1` [Example 111, 5-bromo-3-fluoro-2-[[4-(2-(6-fluoropyridin-3-yl)-1H-imidazol-5-yl)-3-methoxyphenoxy]methyl]pyridine], the fold induction at 10 µM in data set [1] came out at 2.46. The solubility at 24 h in data set [2] (setting [3]) was 9.4 µg/mL (≈ 19.9 µM); in data set [2] (setting [4]) it was 1.2 µg/mL (≈ 2.54 µM).
On to `COc1cc(OC(C)c2ccc(C(F)(F)F)cn2)ccc1-c1c[nH]c(-c2ccc(F)nc2)n1` (stereo not drawn) [Example 117], for which the fold induction at 10 µM in data set [1] came out at 3.38. Also, the solubility at 24 h is 80.2 µg/mL (≈ 175 µM) in data set [2] (setting [3]) and 2.6 µg/mL (≈ 5.67 µM) in data set [2] (setting [4]).
Regarding `COc1cc(OC(C)c2ncc(Br)cc2F)ccc1-c1cnc(-c2ccc(F)nc2)[nH]1` (stereo not drawn) [Example 128], the fold induction at 10 µM in data set [1] worked out at 2.28. Also, the solubility at 24 h in data set [2] (setting [3]) was 94.9 µg/mL (≈ 195 µM); in data set [2] (setting [4]), 4 µg/mL (≈ 8.21 µM).
Consider `COc1cc(OCc2ncc(Cl)cc2C(F)(F)F)ccc1-c1cnc(-c2ccc(F)nc2)[nH]1` [Example 138], for which the fold induction at 10 µM in data set [1] was determined as 2.97.
For the compound `COc1cc(OCc2ccc(C(F)(F)F)cn2)ccc1-c1nc(-c2ccc(Cl)nc2)n(CC2CC2)c1C` [Example 156], the fold induction at 10 µM in data set [1] is 3.27. The solubility at 24 h in data set [2] (setting [3]) is 104 µg/mL (≈ 197 µM); in data set [2] (setting [4]) it was 3.6 µg/mL (≈ 6.81 µM).
As for `COc1cc(-c2[nH]c(C3CCCC(F)(F)C3)nc2Br)ccc1OCc1ccc(C(F)(F)F)cn1` (stereo not drawn) [Example 171], the “Rate of increase in LPL mRNA” value in data set [1] (24 hours) turned out to be 2.89. Further, in data set [2] (1st fluid for Disintegration Test of Japanese Pharmacopoeia (pH: 1.2), 24 hours), the “Solubility (μg/mL) 1st fluid” value is above 109 µg/mL. In addition, the “Solubility (μg/mL) 2nd fluid” value in data set [2] (2nd fluid for Disintegration Test of Japanese Pharmacopoeia (pH: 6.8), 24 hours) is below 1.9 µg/mL.
Turning to `COc1cc(OCc2cnc(C)cn2)ccc1-c1nc(-c2ccc(Cl)nc2)[nH]c1Cl` [Example 219], the fold induction at 10 µM in data set [1] was 2.42. Moreover, the solubility at 24 h is 7.5 µg/mL (≈ 17 µM) in data set [2] (setting [3]) and below 1.6 µg/mL in data set [2] (setting [4]).
Turning to `COc1cc(OCc2ccc(C(F)(F)F)cn2)ccc1-c1c(Cl)nc(-c2ccc(F)nc2)n1CC1CC1` [Example 296], the fold induction at 10 µM in data set [1] was 3.48. Moreover, the solubility at 24 h was 73 µg/mL (≈ 137 µM) in data set [2] (setting [3]) and 2.3 µg/mL (≈ 4.32 µM) in data set [2] (setting [4]).
The like results for `COc1cc(-c2cnc(-c3ccc(F)nc3)[nH]2)ccc1OCc1ncc(C(F)(F)F)cc1F` [Example 324] were, in that order, 1.95, 20.2 µg/mL (≈ 43.7 µM) and 0.8 µg/mL (≈ 1.73 µM).
Turning to `COc1cc(O)ccc1-c1cnc(C2CCC(F)(F)CC2)[nH]1` [Example 338], the fold induction at 10 µM in data set [1] was found to be 1.32. Besides, the solubility at 24 h in data set [2] (setting [3]) was above 62 µg/mL; in data set [2] (setting [4]) it was 59.7 µg/mL (≈ 194 µM).
Consider `COc1cc(OCc2ncc(C(F)(F)F)cc2F)ccc1-c1cnc(C2CCC(F)(F)C2)[nH]1` (stereo not drawn) [Example 340], for which the fold induction at 10 µM in data set [1] was 2.26. Also, the solubility at 24 h in data set [2] (setting [3]) is 93.8 µg/mL (≈ 199 µM); in data set [2] (setting [4]), 8.1 µg/mL (≈ 17.2 µM).
As for `COc1cc(-c2cnc(C3CCC(F)(F)C3)[nH]2)ccc1OCc1ncc(C(F)(F)F)cc1F` (stereo not drawn) [Example 341], the fold induction at 10 µM in data set [1] came to 1.75. Further, the solubility at 24 h is 91.7 µg/mL (≈ 195 µM) in data set [2] (setting [3]) and 15.8 µg/mL (≈ 33.5 µM) in data set [2] (setting [4]).
For the compound `CCc1nc(-c2ccc(F)nc2)[nH]c1-c1ccc(OCc2ncc(C(F)(F)F)cc2F)cc1OC` [Example 362], in data set [1], the fold induction at 10 µM was found to be 2.89. Besides, the solubility at 24 h in data set [2] (setting [3]) is 95.5 µg/mL (≈ 195 µM); in data set [2] (setting [4]), 5 µg/mL (≈ 10.2 µM).
As for `COc1cc(-c2cnc(C3CCCC3)[nH]2)ccc1OCc1ncc(C(F)(F)F)cc1F` [Example 366], the fold induction at 10 µM in data set [1] came to 1.95. Besides, the results for the solubility at 24 h in data set [2] (setting [3]) and in data set [2] (setting [4]) were 79.2 µg/mL (≈ 182 µM) and 24.7 µg/mL (≈ 56.7 µM), respectively.
With `COc1cc(OCc2ncc(C(F)(F)F)cc2F)ccc1-c1cnc(C2CCC2)[nH]1` [Example 371], the fold induction at 10 µM in data set [1] is 3.57. Besides, the results for the solubility at 24 h in data set [2] (setting [3]) and in data set [2] (setting [4]) were 84 µg/mL (≈ 199 µM) and 42.9 µg/mL (≈ 102 µM), respectively.
As to `COc1cc(-c2cnc(C3CCC3)[nH]2)ccc1OCc1ncc(C(F)(F)F)cc1F` [Example 372], the fold induction at 10 µM in data set [1] was found to be 1.95. Further, the solubility at 24 h in data set [2] (setting [3]) is 80.4 µg/mL (≈ 191 µM); in data set [2] (setting [4]), 33.5 µg/mL (≈ 79.5 µM).
As to `COc1cc(OCc2ncc(C(F)(F)F)cc2F)ccc1-c1cnc(C2CC2)[nH]1` [Example 375], the fold induction at 10 µM in data set [1] was determined as 1.83. Besides, the solubility at 24 h in data set [2] (setting [3]) is 73.9 µg/mL (≈ 181 µM); in data set [2] (setting [4]), 72.5 µg/mL (≈ 178 µM).
With `COc1cc(-c2cnc(C3CC3)[nH]2)ccc1OCc1ncc(C(F)(F)F)cc1F` [Example 376], the fold induction at 10 µM in data set [1] was 1.18. Moreover, the values for the solubility at 24 h in data set [2] (setting [3]) and in data set [2] (setting [4]) were 75.2 µg/mL (≈ 185 µM) and 79.4 µg/mL (≈ 195 µM), respectively.
Consider `COc1cc(-c2cnc(C(C)C)[nH]2)ccc1OCc1ncc(C(F)(F)F)cc1F` [Example 382], for which the fold induction at 10 µM in data set [1] was 1.41. For the same compound, the solubility at 24 h in data set [2] (setting [3]) is 74.8 µg/mL (≈ 183 µM); in data set [2] (setting [4]), 62.1 µg/mL (≈ 152 µM).
Taken in the same sequence, the figures for `CCCCOC(C)n1cc(-c2ccc(OCc3ncc(C(F)(F)F)cc3F)cc2OC)nc1-c1ccc(F)nc1` (stereo not drawn) [Example 389] were 1.63, 96 µg/mL (≈ 171 µM) and 1.8 µg/mL (≈ 3.2 µM).
On to `COc1cc(-c2cnc(CCC(F)(F)F)[nH]2)ccc1OCc1ncc(C(F)(F)F)cc1F` [Example 391], for which, in data set [1], the fold induction at 10 µM amounted to 1.58. For the same compound, the solubility at 24 h was 1.1 µg/mL (≈ 2.37 µM) in data set [2] (setting [3]) and 7.1 µg/mL (≈ 15.3 µM) in data set [2] (setting [4]).
The like results for `COc1cc(-c2cnc(-c3ccc(F)nc3)[nH]2)ccc1OC(C)c1ncc(C(F)(F)F)cc1F` (stereo not drawn) [Example 392] were, in that order, 1.73, 60.8 µg/mL (≈ 128 µM) and below 0.3 µg/mL.
On to `COc1cc(OCc2ncc(C(F)(F)F)cc2F)ccc1-c1[nH]c(C2CC(F)(F)C2)nc1F` [Example 401], for which the fold induction at 10 µM in data set [1] stood at 2.9.
`COc1cc(OCc2ncc(C(F)(F)F)cc2F)ccc1-c1cnc(-c2ccc(C)nc2)[nH]1` [Example 402]: the fold induction at 10 µM in data set [1] came out at 2.37.
Same read-out and setting: next, `COc1cc(-c2cnc(-c3ccc(C)nc3)[nH]2)ccc1OCc1ncc(C(F)(F)F)cc1F` [Example 403]: 2.09; `COc1cc(OCc2ncc(C(F)(F)F)cc2F)ccc1-c1[nH]c(-c2ccc(C)nc2)nc1Cl` [Example 404]: 3.26.
With `COc1cc(-c2[nH]c(-c3ccc(C)nc3)nc2Cl)ccc1OCc1ncc(C(F)(F)F)cc1F` [Example 405], the fold induction at 10 µM in data set [1] amounted to 2.78.

Source of the values: patent US10570117B2, “Phenylimidazole compound” (Otsuka Pharmaceutical Factory, Inc., priority 2015, dated 2020).
